Consider one molecule from ChEMBL document CHEMBL4765476, “MCC950, a NLRP3 inhibitor, ameliorates lipopolysaccharide-induced lung inflammation in mice” (Bioorg Med Chem, 2021).

Active and inactive are the calls of the source. The calls are words filed in the database; no cut-off is given here.

Assay [1] deals with Mus musculus. In words: Antiinflammatory activity in ICR mouse assessed as reduction in LPS-induced neutrophil level in BALF at 0.5 mg/kg, INH administered 18 hrs before LPS-stimulation and measured after 24 hrs by FACS analysis relative to control. It counts as functional. To be noted: time 42 hrs.
The test system of assay [2] is Mus musculus. In words: Antiinflammatory activity in ICR mouse assessed as reduction in LPS-induced macrophage level in BALF at 0.5 mg/kg, INH administered 18 hrs before LPS-stimulation and measured after 24 hrs by FACS analysis relative to control. It counts as functional. To be noted: time 42 hrs.
Assay [3] has as its system Mus musculus. In words: Antiinflammatory activity in ICR mouse assessed as reduction in LPS-induced lymphocyte level in BALF at 0.5 mg/kg, INH administered 18 hrs before LPS-stimulation and measured after 24 hrs by FACS analysis relative to control. It counts as functional. The settings on record: time 42 hrs.
Assay [4] relates to Mus musculus. Description: Antiinflammatory activity in ICR mouse assessed as reduction in LPS-induced neutrophil level in BALF at 0.5 mg/kg, ip administered 18 hrs before LPS-stimulation and measured after 24 hrs by FACS analysis relative to control. It counts as functional. The settings on record: time 42 hrs. (In general: A flow cytometer gives signals particle by particle.)

The test system of assay [5] is Mus musculus. In words: Antiinflammatory activity in ICR mouse assessed as reduction in LPS-induced macrophage level in BALF at 0.5 mg/kg, ip administered 18 hrs before LPS-stimulation and measured after 24 hrs by FACS analysis relative to control. To be noted: time 42 hrs. It counts as functional.
In assay [6] the test system is Mus musculus. In words: Antiinflammatory activity in ICR mouse assessed as reduction in LPS-induced lymphocyte level in BALF at 0.5 mg/kg, ip administered 18 hrs before LPS-stimulation and measured after 24 hrs by FACS analysis relative to control. It counts as functional. The settings on record: time 42 hrs.
The test system of assay [7] is Mus musculus. In words: Antiinflammatory activity in ICR mouse assessed as reduction in LPS-induced neutrophil infiltration in lungs at 0.5 mg/kg, INH administered 18 hrs before LPS-stimulation and measured after 24 hrs by H and E staining based imaging analysis relative to control. It is filed as functional. The settings on record: time 42 hrs.
For assay [8], the system named is Mus musculus. In words: Antiinflammatory activity in ICR mouse assessed as reduction in LPS-induced neutrophil infiltration in lungs at 0.5 mg/kg, ip administered 18 hrs before LPS-stimulation and measured after 24 hrs by H and E staining based imaging analysis relative to control. It counts as functional. The settings on record: time 42 hrs.
The subject of assay [9] is Mus musculus. In words: Antiinflammatory activity in ICR mouse assessed as reduction in LPS-induced IL-1beta mRNA expression in lungs at 0.5 mg/kg, INH administered 18 hrs before LPS-stimulation and measured after 24 hrs by qRT-PCR analysis. It counts as functional, organism-based. To be noted: time 42.0 hrs. (Quantitative PCR measures a nucleic acid by following its amplification.)

Assay [10] relates to Mus musculus. Description: Antiinflammatory activity in ICR mouse assessed as reduction in LPS-induced IL-8 mRNA expression in lungs at 0.5 mg/kg, INH administered 18 hrs before LPS-stimulation and measured after 24 hrs by qRT-PCR analysis. It counts as functional, organism-based. The settings on record: time 42.0 hrs.
The subject of assay [11] is Mus musculus. In words: Antiinflammatory activity in ICR mouse assessed as reduction in LPS-induced TGF-beta1 mRNA expression in lungs at 0.5 mg/kg, INH administered 18 hrs before LPS-stimulation and measured after 24 hrs by qRT-PCR analysis. It counts as functional, organism-based. The settings on record: time 42.0 hrs.
In assay [12] the test system is Mus musculus. In words: Antiinflammatory activity in ICR mouse assessed as reduction in LPS-induced MMP-9 mRNA expression in lungs at 0.5 mg/kg, INH administered 18 hrs before LPS-stimulation and measured after 24 hrs by qRT-PCR analysis. It counts as functional, organism-based. To be noted: time 42.0 hrs.
The subject of assay [13] is Mus musculus. In words: Antiinflammatory activity in ICR mouse assessed as reduction in LPS-induced IL-1beta mRNA expression in lungs at 0.5 mg/kg, ip administered 18 hrs before LPS-stimulation and measured after 24 hrs by qRT-PCR analysis. It counts as functional, organism-based. To be noted: time 42.0 hrs.
Assay [14] relates to Mus musculus. In words: Antiinflammatory activity in ICR mouse assessed as reduction in LPS-induced IL-8 mRNA expression in lungs at 0.5 mg/kg, ip administered 18 hrs before LPS-stimulation and measured after 24 hrs by qRT-PCR analysis. It is filed as functional, organism-based. To be noted: time 42.0 hrs.
Assay [15] relates to Mus musculus. In words: Antiinflammatory activity in ICR mouse assessed as reduction in LPS-induced TGF-beta1 mRNA expression in lungs at 0.5 mg/kg, ip administered 18 hrs before LPS-stimulation and measured after 24 hrs by qRT-PCR analysis. To be noted: time 42.0 hrs. It is filed as functional, organism-based.
Assay [16] has as its system Mus musculus. Description: Antiinflammatory activity in ICR mouse assessed as reduction in LPS-induced MMP-9 mRNA expression in lungs at 0.5 mg/kg, ip administered 18 hrs before LPS-stimulation and measured after 24 hrs by qRT-PCR analysis. It is filed as functional, organism-based. To be noted: time 42.0 hrs.
In assay [17] the test system is Mus musculus. Description: Antiinflammatory activity in ICR mouse assessed as reduction in LPS-induced IL-1beta expression in lungs at 0.5 mg/kg, INH administered 18 hrs before LPS-stimulation and measured after 24 hrs by Western blot analysis. It counts as functional, organism-based. To be noted: time 42.0 hrs. On the technique in general: Immunoblotting shows a protein as a band on a membrane.

In assay [18] the test system is Mus musculus. In words: Antiinflammatory activity in ICR mouse assessed as reduction in LPS-induced caspase-1 expression in lungs at 0.5 mg/kg, INH administered 18 hrs before LPS-stimulation and measured after 24 hrs by Western blot analysis. It is filed as functional, organism-based. The settings on record: time 42.0 hrs.
Assay [19] has as its system Mus musculus. Description: Antiinflammatory activity in ICR mouse assessed as reduction in LPS-induced IL-1beta expression in lungs at 0.5 mg/kg, ip administered 18 hrs before LPS-stimulation and measured after 24 hrs by Western blot analysis. To be noted: time 42.0 hrs. It counts as functional, organism-based.
In assay [20] the test system is Mus musculus. In words: Antiinflammatory activity in ICR mouse assessed as reduction in LPS-induced caspase-1 expression in lungs at 0.5 mg/kg, ip administered 18 hrs before LPS-stimulation and measured after 24 hrs by Western blot analysis. It is filed as functional, organism-based. To be noted: time 42.0 hrs.
For assay [21], the system named is Mus musculus. Description: Antiinflammatory activity in ICR mouse assessed as reduction in LPS-induced IL-1beta expression in serum at 0.5 mg/kg, INH administered 18 hrs before LPS-stimulation and measured after 24 hrs by ELISA. It counts as functional, organism-based. To be noted: time 42.0 hrs.
The subject of assay [22] is Mus musculus. Description: Antiinflammatory activity in ICR mouse assessed as reduction in LPS-induced IL-18 expression in serum at 0.5 mg/kg, INH administered 18 hrs before LPS-stimulation and measured after 24 hrs by ELISA. It counts as functional, organism-based. The settings on record: time 42.0 hrs.
Assay [23] has as its system Mus musculus. In words: Antiinflammatory activity in ICR mouse assessed as reduction in LPS-induced IL-1beta expression in serum at 0.5 mg/kg, ip administered 18 hrs before LPS-stimulation and measured after 24 hrs by ELISA. It counts as functional, organism-based. The settings on record: time 42.0 hrs.
The subject of assay [24] is Mus musculus. In words: Antiinflammatory activity in ICR mouse assessed as reduction in LPS-induced IL-18 expression in serum at 0.5 mg/kg, ip administered 18 hrs before LPS-stimulation and measured after 24 hrs by ELISA. It counts as functional, organism-based.

A word on the inhibition in vivo: it is the share of the control response that was lost under treatment. On to `C[C@@H]1C[C@H]2[C@@H]3CCC4=CC(=O)C=C[C@]4(C)[C@@]3(F)[C@@H](O)C[C@]2(C)[C@@]1(O)C(=O)CO` [DEXAMETHASONE], for which the inhibition in vivo at 0.5 mg/kg in the assay with Mus musculus [1] turned out to be 72.9%; in the assay with Mus musculus [2], 40.9%; with Mus musculus [3], 30.6%; in the assay on Mus musculus [4], 66.9%; in the assay with Mus musculus [5], 75.1%; with Mus musculus [6], 46.1%. In addition, the inhibition in vivo at 0.5 mg/kg in the assay with Mus musculus [7] came out at 55.9%; in the assay on Mus musculus [8] it was 58.7%. Besides, the inhibition entry in the assay with Mus musculus [9], in the assay on Mus musculus [10], with Mus musculus [11], with Mus musculus [12], with Mus musculus [13] and with Mus musculus [14] was “Active” in each case. For the same molecule, the inhibition entry with Mus musculus [15], with Mus musculus [16], with Mus musculus [17], in the assay on Mus musculus [18], in the assay with Mus musculus [19] and with Mus musculus [20] was “Active” in each case. The inhibition result in the assay with Mus musculus [21], with Mus musculus [22], with Mus musculus [23] and with Mus musculus [24] was “Active” each time.
